# Measurements from US8445006B2, “Biomolecular coating for implants” (Georgia Tech Research Corporation, priority 2006, dated 2013).
# Experiments:
# MC3T3-E1 cells = experiment: Centrifugation cell adhesion assay on ligand-tethered SAMs; type: cell-based, murine
# Protocol: MC3T3-E1 murine immature osteoblast-like cells (Riken Cell Bank, Hirosawa, Japan) were used because of their expression of multiple integrins, including alpha5beta1, alpha2beta1, and alphaVbeta3. Cells were maintained at 37° C. in α-MEM supplemented with 10% FBS and 1% penicillin-streptomycin and passaged every 2-3 days via standard culture techniques.
# Self-assembled monolayers (SAMs) of alkanethiols on gold were used to present well-defined, ordered surfaces with anchoring groups within a non-fouling background. Tri(ethylene glycol)-terminated alkanethiol (HS—(CH2)11—(OCH2CH2)3—OH; EG3) and carboxylic acid-terminated alkanethiol (HS—(CH2)11—(OCH2CH2)6—OCH2COOH; EG6-COOH) were previously synthesized and characterized. Gold-coated substrates were prepared by sequential deposition of titanium (100 Å) and gold (200 Å) films via an electron beam evaporator (Thermionics Laboratories, Hayward, Calif., 2×10^−6 Torr, 1 A/s) onto clean 6-well plate lids or glass coverslips. Mixed SAM surfaces were prepared on substrates by immersing in a 1.0 mM mixed solution of EG3/EG6-COOH thiols (4 h). Peptide ligands were tethered using standard peptide chemistry. Briefly, following washing in ethanol and ultrapure H2O, SAMs were incubated in 2.0 mM EDC and 5.0 mM NHS in 0.1 M 2-(N-morpho)-ethanesulfonic acid and 0.5 M NaCl (pH 6.0), and subsequently immersed in a 20 mM solution of 2-mercaptoethanol in deionized H2O. Adhesive ligands in PBS were then incubated on the activated supports for 30 min and the unreacted surface NHS esters were then quenched in 20 mM glycine. Finally, the surfaces were blocked in 1% heat-denatured bovine serum albumin (BSA) and then incubated overnight in DPBS to reduce nonspecific protein adsorption.
# A modification of a centrifugation assay was used to apply controlled detachment forces to cells adhering to engineered surfaces. Multi-wells of engineered surfaces were created on gold-coated polystyrene plate lids using silicone gaskets (Grace Bio-Labs, Bend, Oreg.). Mixed SAMs were assembled and ligands tethered at varying densities. MC3T3-E1 cells were labeled with […] calcein-AM, a membrane-permeable green fluorescent dye, in 2 mM dextrose-DPBS for 30 min and resuspended in α-MEM with 10% FBS. Cells were seeded onto the surfaces at 200 cells/mm^2, and allowed to attach for 1 h at 37° C. For blocking antibody experiments, cells were incubated in the presence of function-perturbing antibodies (10 μg/ml) for 10 min with gentle agitation prior to cell seeding. Before centrifugation, cell images were taken using a Nikon TE-300 fluorescence microscope and Spot RT digital camera. Wells were then filled completely with dextrose-PBS, sealed, inverted, and centrifuged for 5 min at a prescribed speed on a Beckman Allegra 6 centrifuge (GH 3.8 rotor) to apply normal detachment forces. Media was then gently aspirated from the wells, and wells were refilled for post-spin image collection. Post/pre-spin cell ratios were determined by image analysis, and this adhesive fraction was plotted against ligand surface density to obtain cell adhesion profiles.
# [1] = test system: HFN7.1 monoclonal antibody; experiment: ELISA with HFN7.1 monoclonal antibody; type: binding; conditions: passively adsorbed ligands, various coating concentrations
# Protocol: An ELISA was used to probe for the biological activity of the FNIII7-10 fragment compared to pFN. FNIII7-10 or pFN was adsorbed onto either uncoated or Neutravidin-coated (100 μg/ml) 96-well black U-well Dynex plates at various concentrations for 30 min. Following incubation in blocking buffer (0.25% BSA, 0.1 M EDTA, 2.5% Tween-20, 0.00125% NaN3), HFN7.1 antibody (0.6 μg/ml in blocking buffer) was added for 1 h at 37° C., and, after washing with blocking buffer, surfaces were incubated in alkaline phosphatase-conjugated anti-mouse IgG (0.6 μg/ml) for 1 h at 37° C. Washed surfaces were exposed to 4-methylumbelliferyl phosphate (25 mg/ml in 10 mM diethanolamine, pH 9.5). The resulting fluorescence was quantified using an HTS 7000 Plus plate reader (Perkin Elmer, Foster City, Calif.) at 360 nm excitation and 465 nm emission.
# rat tibia cortical bone = experiment: Rat tibia cortical bone implantation, histology and bone-implant contact histomorphometry; type: in vivo; conditions: 4 weeks
# Protocol: Commercially pure titanium implants (FIG. 4) were sonicated in de-ionized water for 20 min to remove surface debris. Implants were then dipped in 4% HF for 30 sec to remove the existing oxide layer and then incubated in 35% HNO3 for 30 min at 50° C. to regenerate a new oxide coating. Samples were transferred to 1.8 N NaOH for 1 min to terminate the oxidation reaction. Implants were then rinsed and boiled in de-ionized water for 1 h. To create the bioactive coating, the implants were incubated in 20 μg/ml GFOGER peptide (SEQ ID NO:1) or type I collagen solution for 1 h. Control titanium rods were incubated in PBS.
# Implantations were conducted in accordance with an IACUC-approved protocol. Both hind legs of anesthetized, mature Sprague-Dawley male rats (250-350 g) were shaved and scrubbed with alcohol. The medial aspect of the proximal tibial metaphysis was exposed through an antero-medial skin incision, leaving the medial collateral ligament intact. Using a saline-cooled drill, two defects were created in each tibia. Sterile implant rods were press fit into the defects. Periosteum was mobilized and sutured over the implantation site, and the skin was closed with wound clips. Subjects were euthanized after 4 weeks and proximal tibiae were fixed in neutral buffered formalin for histology or recovered without fixation and maintained in PBS-moistened gauze for immediate mechanical testing.
# Excised tibiae were fixed in 10% neutral buffered formalin for 1 week. […] Ground sections of 50-80 μm were generated using the Exakt Grinding System™. Two longitudinal ground sections were generated per tibia, each containing two titanium plugs inserted transverse to the tibia's long axis. Sections were then stained with Sanderson's Rapid Bone Stain™ and a van Gieson counter stain. Bone implant contact (BIC) was measured as the percentage of implant's circumference that was in direct contact with bone tissue (Adobe Photoshop® CS imaging software).
# To evaluate the performance of the bioactive GFOGER peptide (SEQ ID NO:1) treatment in vivo, osseointegration in a rat tibia cortical bone model was quantified using quantitative histomorphometry and pull-out mechanical testing. A cylindrical titanium implant rod with a tapered stop collar was designed (FIG. 4). The tapered head ensures that all implants are inserted into the bone at the same depth, guaranteeing uniform bone contact among treatments. Using a saline-cooled drill, two defects 2 mm in diameter were created in the medial aspect of the proximal tibial metaphysis. Implant rods consisting of GFOGER peptide (SEQ ID NO:1) functionalized or untreated (control) titanium were press fit into the cortical defects. After four weeks, the rat tibiae were harvested and evaluated for bone apposition by histological staining and mechanical integration by pull-out testing. […] Representative micrographs show 50-80 μm longitudinal ground sections of rat tibia stained with Sanderson's Rapid Bone Stain™ and van Gieson counterstain. Cells stain dark to light blue, soft tissue elements stain blue-green, and bone matrix stains yellow orange to autumn orange.
# Osseointegration of implants in a rat tibia cortical bone model was quantified to evaluate the in vivo performance of the engineered titanium surfaces in bone healing. Importantly, this in vivo model provides a rigorous platform to evaluate implant coating function in a relevant orthopaedic setting. Two 2.0-mm diameter defects were drilled into the medial aspect of the proximal tibial metaphysis using a saline cooled drill. Tapered cylindrical implants (FIG. 4) of clinical-grade titanium were press-fit into the cortical defects.
substance,measurement,setting,value
GRGDG13PHSRN (GRGDGGGGGGGGGGGGGPHSRN) [RGD-PHSRN],ADH50 (ligand density required for half-maximal adhesion),"MC3T3-E1 cells; ligand tethered to SAMs, MC3T3-E1",1950 fmol/cm^2
same,adhesion with blocking antibodies against α5β1 integrin,"MC3T3-E1 cells; maximum ligand density, normalized to unblocked controls",only slightly reduced adhesion
pFN: human plasma fibronectin obtained from Invitrogen,HFN7.1 binding (biological activity),[1],increased with protein coating concentration
type I collagen: native type I collagen coating on titanium implants,"bone apposition (bone implant contact, BIC)",rat tibia cortical bone; passively coated implants vs untreated titanium,COL>Ti
same,histology: peri-implant bone mineral,rat tibia cortical bone; passively coated titanium implants (20 μg/ml),Less bone mineral was visible
